“Also recorded” adds a separate entry of the source.

Series [1] is described as follows: Spectrophotometric titration. The class given is binding. The text has this:
(§1) Changes in the optical absorption characteristics of Nd^3+ were monitored using a Cary 6000i UV/Vis–NIR Spectrometer (Agilent) using 1 cm semimicro quartz cuvettes (Starna) in double-beam mode, where the ^4I9/2 → ^4G5/2, ^2G7/2 transitions[34] were monitored between 560 and 605 nm with a 0.075 nm interval and 1.0 nm spectral bandwidth. Changes in the optical absorption characteristics of ^243Am^3+ and ^248Cm^3+ were monitored using a Flame-S-VIS–NIR-ES spectrometer coupled to a DH-2000-BAL dual-mode light source (Ocean Optics) with a single 1 cm semimicro quartz cuvette (Starna). The light source and spectrometer were optically coupled to the CUV sample (Ocean Optics) holder using 2 m fiberoptics (200 μm) and the parameters for acquisition were 0.369 nm interval and 1000 scans averaged with an integration time/scan 1.08 ms (total acquisition time ~ 1 s). The complexation of Am^3+ with the ligands was monitored in the 495–525 nm spectral region, looking at the ^7F0′ → ^5L6′ transition[23],[35]. For Cm^3+, ligand complexation was monitored in the 365–410 nm spectral region, looking at the ^8S7/2 → ^2Ji (i = {15}, {13,9}, {11,17}) manifold transitions[24],[25],[36]. Changes in aqueous p[H^+] were monitored throughout each titration step using a Gran-calibrated Orion Ross Semi-micro glass electrode. Baseline correction was applied to all datasets and was typically a simple linear subtraction. However, in the case of the ^248Cm/H4pypa-peg spectra, the tail end of the ligand absorption overlapped the hypersensitive Cm peaks. In this case the background correction was applied using a 5th-order empirical polynomial. Finally, the spectroscopic data was analyzed using the HypSpec software package[33],[37]. Full details of the titrand and titrant solutions for each titration are included in the Supplemental Information.
To further validate the competitive solvent extraction methodology the complexation of Am^3+ with H4octapa and Cm^3+ with H4pypa-peg was studied spectrophotometrically. These titrations monitored the ligand-induced changes on the optical absorption spectra of free Am^3+ at λmax = 503.0 nm, (Fig. 8A) and Cm^3+ at λmax = 375.0, 380.6, 396.5 nm, (Fig. 8C). The presence of both ligands induced new red-shifted absorption signatures in each monitored titration. […] Excellent agreement between the solvent extraction and spectrophotometry was attained for the β101 values for the formation of [Am(octapa)]^− albeit the uncertainty associated with a constant measured using competitive liquid–liquid distribution is rather large and points out the shortcomings of this method. A variance between two analytical methods is larger for [Cm(pypa-peg)]^− possibly due to free ligand absorption interferences.
2. Spectrophotometric titration parameters […]
H4octapa, at p[H+] ≈ 5.0 – 6.0. […]
Am3+: The titrand solution consisting of 0.806 mL of 0.791 mM Am(ClO4)3 at p[H+] = 1.41 was
blended with 0.787 mL of titrant solution containing 0.801 mM Am3+ and 15.09 mM
H4pypa-peg at p[H+] ≈ 5 – 6. […]

The nature of series [2]: Spectrophotometric titration. The class given is binding.
Source text: as §1
The coordination of Nd^3+ by H4octapa and H4pypa-peg was also studied using spectroscopic methods. Figures 5A, B show the collected spectrophotometric signatures for H4octapa and H4pypa-peg, respectively.4 M^3++L^4-⇆ML^-β101=ML^-/[M^3+]L^4- 5 M^3++H^++L^4-⇆MHLaqβ111=MHLaq/[M^3+L^4-H^+]
Optical absorption features of ^4I9/2 → ^4G5/2, ^2G7/2 transitions for Nd^3+ are perturbed due to the introduction of increasing quantities of complexants, resulting in characteristic red-shifted changes. In Fig. 5A a broad absorption band with λmax = 577 nm is distinctly different to the optical absorption of free Nd^3+ metal in Fig. 5B. The differences can be attributed to the nitrate complexation of Nd^3+ as the spectrophotometric titration with H4octapa was performed in 2.0 M (Na^+/H^+)NO3. […] The HypSpec interpretation of the Nd/pypa-peg titration points to the presence of three absorbing species: Nd^3+, NdHL(aq), and NdL^−. The conditional stability constants obtained spectroscopically are listed in Table 3, showing good agreement with the stability constants determined using potentiometry. The complex stability constants for structurally similar APC ligands found in the literature are also presented (H4pypa[18] and H4py4pa[57]).
2. Spectrophotometric titration parameters
Nd3+: The titrand solution consisting of 1.980 mL of 7.57 mM Nd(ClO4)3 at p[H+] = 1.61 was blended with 1.965 mL of titrant solution containing 7.62 mM Nd3+, 18.57 mM H4octapa, […]
Am3+: The titrand solution consisting of 0.842 mL of 0.810 mM Am(ClO4)3 at p[H+] =1.66 was blended with 0.811 mL of titrant solution containing 0.815 mM Am3+, 8.95 mM H4octapa, at p[H+] ≈ 5.0 – 6.0.
Nd3+: The titrand solution consisting of 0.801 mL of 9.82 mM Nd(ClO4)3 at p[H+] = 1.61 was blended with 1.176 mL of titrant solution containing 9.91 mM Nd3+ and 24.58 mM H4pypa-peg in with p[H+] ≈ 3.0 – 4.0.
Am3+: The titrand solution consisting of 0.806 mL of 0.791 mM Am(ClO4)3 at p[H+] = 1.41 was blended with 0.787 mL of titrant solution containing 0.801 mM Am3+ and 15.09 mM H4pypa-peg at p[H+] ≈ 5 – 6.
Cm3+: The titrand solution consist ing of 0.809 mL of 1.00 mM Cm(ClO4)3 at p[H+] = 1.34 was […]
This is another data set of the same source.

Series [3] is described as follows: Solubility in aqueous electrolyte media (observation). The class given is physicochemical.
[4] abbreviates: I = 2.0 M (Na+/H+)ClO4 at 20.0 °C (spectrophotometric titration).
[5] abbreviates: spectrophotometrically determined in 2.0 M (Na+/H+)ClO4, 20 °C.

With `O=C(O)CN(CCN(CCN(CC(=O)O)CC(=O)O)CC(=O)O)CCN(CC(=O)O)CC(=O)O` [H6ttha, triethylenetetraamine-N,N,N',N'',N''',N'''-hexaacetic acid], in series [1] (setting [4]), the “logβ101 (ML), Am3+” value is reported as 23.25(3); the “logβ111 (MHL), Am3+” value is 27.02(3); the “logβ121 (MH2L), Am3+” value is recorded as 28.84(2). Besides, in series [2] (setting [5]), the “logβ101 (ML), Nd” value was 21.90(7) and the “logβ111 (MHL), Nd” value is given as 25.56(7).
Turning to `O=C(O)CN(CCN(CC(=O)O)Cc1cccc(C(=O)O)n1)Cc1cccc(C(=O)O)n1` [H4octapa, 6,6′-((ethane-1,2-diylbis–((carboxymethyl)azanediyl))bis–(methylene))dipicolinic acid], the “logβ101 (ML), Am3+” value in series [1] (spectrophotometrically measured, I = 2.0 M (Na+/H+)NO3, T = 25 ± 1 °C, ±3σ) is 19.28 (1). In series [3] (aqueous sodium perchlorate electrolyte medium, 2 M (Na+/H+)ClO4), the “solubility in high ionic strength perchlorate media” value is on record as “limited; also recorded: Low solubility”. In addition, the “logβ101 (ML), Nd” value in series [2] (spectrophotometrically determined in 2.0 M (Na+/H+)NO3) is given as 18.15 (1).
`O=C(O)CN(Cc1cc(-c2cn(CCOCCOCCO)nn2)cc(CN(CC(=O)O)Cc2cccc(C(=O)O)n2)n1)Cc1cccc(C(=O)O)n1` [H4pypa-peg, 6,6'-((((4-(1-(2-(2-(2-hydroxyethoxy)ethoxy)ethyl)-1H-1,2,3-triazol-4-yl)pyridine-2,6-diyl)bis–(methylene))bis–((carboxymethyl)azanediyl))bis–(methylene)) dipicolinic acid]: in series [3] (moderately acidic aqueous electrolyte mixtures), the “aqueous solubility compared to unfunctionalized H4pypa” value is on record as “significantly improved aqueous solubility”. The “logK111, Nd” value in series [2] (spectrophotometrically determined in 2.0 M (Na+/H+)ClO4) is on record as 1.89 (6). Moreover, in series [2] (setting [5]), the “logβ101 (ML), Nd” value is 18.15 (6) and the “logβ111 (MHL), Nd” value is reported as 20.04 (4).
As to `O=C(O)CN(CCN(CC(=O)O)CC(=O)O)CCN(CC(=O)O)CC(=O)O` [H5dtpa, diethylenetriamine-N,N,N',N'',N''-pentaacetic acid], in series [1] (setting [4]), the “logβ101 (ML), Am3+” value is given as 21.45(1) and the “logβ111 (MHL), Am3+” value is on record as 22.62(2). In addition, in series [2] (setting [5]), the “logβ101 (ML), Nd” value is on record as 20.23(2) and the “logβ111 (MHL), Nd” value is given as 21.59(2).

These data come from PMC10587169, “Tuning aminopolycarboxylate chelators for efficient complexation of trivalent actinides” (Scientific Reports, 2023).
